# Source: US10227347B2, “Purinyl-N-hydroxyl pyrimidine formamide derivative, preparation methods and uses thereof” (Guizhou Bailing Group Pharmaceutical CO., LTD., priority 2015, dated 2019)
# pIC50: −log10 of the molar value.
# Key:
# mTOR = molecular target: T1, mTOR (Homo sapiens, UniProt P42345); experiment: mTOR activity inhibition (ULight-4E-BP1 peptide); type: biochemical; conditions: Table 1, graded
# T1 construct: purchased Millipore 14-770
# Experimental: mTOR protein is purchased from Millipore Company (Catalog No.: 14-770). The reaction buffer system comprises 50 mM HEPES, 10 mM MgCl2, 1 mM EGTA, 3 mM […], 0.01% Tween-20 (purchased from Chengdu Kelong Chemical Regent Factory) and 2 mM DTT. The pH value of the reaction buffer is 7.5. Preparing 10 μL reaction system in corresponding wells of the 384 well plate, which contains the compositions as: the compound with designed concentration (or blank control), mTOR protein (with the concentration of 2.5 nM), ULight-4E-BP1 (containing the 37th and the 46th threonine residues, Thr37/46) peptide (purchased from PE Company, Catalog No.: TRF0128-M) and ATP substrates (ULight-4E-BP1 peptide, with the concentration of 50 nM and ATP, with the concentration of […]). Mixing it evenly for incubation under ambient temperature for 1 h; adding 10 μL testing liquid containing EDTA (ethylenediaminetetraacetic acid) and Eu-anti-phosphorylation-4E-BP1 (Thr37/46) antibody (purchased from PE Company, Catalog No.: TRF0216-M) into the reaction wells (after the testing liquid is added, the concentration of EDTA is 8 mM and the concentration of Eu-phosphorylation-4E-BP1 antibody is 2 nM); mixing it evenly and incubating it for 1 h under ambient temperature, then measuring the fluorescence intensity with a microplate reader and analyzing the result data with the software GraphPad Prism.
# Calculating the value of IC50 as per the formula: Y=background data+(top data−background data)/(1+10^((Log IC50−X)*rate of curve))
# Where, Y refers to the inhibition ratio (%) and X refers to the compound concentration.
# [1] = system: human colon cancer hct116 subcutaneous tumor; experiment: Subcutaneous tumor model, human colon cancer hct116; conditions: once per 2 days, intravenous
# [2] = system: human multiple myeloma MM1S subcutaneous tumor; experiment: Subcutaneous tumor model, human multiple myeloma MM1S; conditions: once per 2 days
# Experimental: (§1) Cell MM1S is cultured in RPMI1640 medium (HyClone) which contains 10% fetal calf serum (Hohhot Caoyuan Lvye Bioengineering Material Co., Ltd.) and 100 U/mL penicillin and streptomycin (Beyotime).
# (§2) 3) Inoculation, grouping and treatment: collecting cells in logarithmic phase under aseptic conditions and counting; diluting the single cell suspension with the medium containing neither fetal calf serum nor antibiotics to 1×10^7-8 cell/mL for standby. Mixing the cell suspension; injecting 100 μL of cell suspension (5×10^6-2×10^7 cells) subcutaneously with a 1 mL injector on the right side of the back of animals. Weeding out the animals with oversized and undersized tumor when the tumor grows to an average volume of about 120 mm^3 and grouping the qualified animals for treatment and drug administration. Refer to Table 7 for each grouping model and drug administration frequency. Measuring the weight of each model per 2 days and measuring the length and width of the tumor with a vernier caliper; killing the tested animals through cervical dislocation and peeling off their tumors for weight measuring and photographing. Then calculating the tumor inhibition ratio (%) and evaluating the inhibition intensity to tumor with such tumor inhibition ratio.
# [3] = system: human breast cancer MCF-7 subcutaneous tumor; experiment: Subcutaneous tumor model, human breast cancer MCF-7; conditions: once per 2 days
# [4] = system: human breast cancer MDA-MB-231 subcutaneous tumor; experiment: Subcutaneous tumor model, human breast cancer MDA-MB-231; conditions: once per 2 days
# Experimental: as §1, §2
# T1 sequence (P42345 1362-2549 limits assumed): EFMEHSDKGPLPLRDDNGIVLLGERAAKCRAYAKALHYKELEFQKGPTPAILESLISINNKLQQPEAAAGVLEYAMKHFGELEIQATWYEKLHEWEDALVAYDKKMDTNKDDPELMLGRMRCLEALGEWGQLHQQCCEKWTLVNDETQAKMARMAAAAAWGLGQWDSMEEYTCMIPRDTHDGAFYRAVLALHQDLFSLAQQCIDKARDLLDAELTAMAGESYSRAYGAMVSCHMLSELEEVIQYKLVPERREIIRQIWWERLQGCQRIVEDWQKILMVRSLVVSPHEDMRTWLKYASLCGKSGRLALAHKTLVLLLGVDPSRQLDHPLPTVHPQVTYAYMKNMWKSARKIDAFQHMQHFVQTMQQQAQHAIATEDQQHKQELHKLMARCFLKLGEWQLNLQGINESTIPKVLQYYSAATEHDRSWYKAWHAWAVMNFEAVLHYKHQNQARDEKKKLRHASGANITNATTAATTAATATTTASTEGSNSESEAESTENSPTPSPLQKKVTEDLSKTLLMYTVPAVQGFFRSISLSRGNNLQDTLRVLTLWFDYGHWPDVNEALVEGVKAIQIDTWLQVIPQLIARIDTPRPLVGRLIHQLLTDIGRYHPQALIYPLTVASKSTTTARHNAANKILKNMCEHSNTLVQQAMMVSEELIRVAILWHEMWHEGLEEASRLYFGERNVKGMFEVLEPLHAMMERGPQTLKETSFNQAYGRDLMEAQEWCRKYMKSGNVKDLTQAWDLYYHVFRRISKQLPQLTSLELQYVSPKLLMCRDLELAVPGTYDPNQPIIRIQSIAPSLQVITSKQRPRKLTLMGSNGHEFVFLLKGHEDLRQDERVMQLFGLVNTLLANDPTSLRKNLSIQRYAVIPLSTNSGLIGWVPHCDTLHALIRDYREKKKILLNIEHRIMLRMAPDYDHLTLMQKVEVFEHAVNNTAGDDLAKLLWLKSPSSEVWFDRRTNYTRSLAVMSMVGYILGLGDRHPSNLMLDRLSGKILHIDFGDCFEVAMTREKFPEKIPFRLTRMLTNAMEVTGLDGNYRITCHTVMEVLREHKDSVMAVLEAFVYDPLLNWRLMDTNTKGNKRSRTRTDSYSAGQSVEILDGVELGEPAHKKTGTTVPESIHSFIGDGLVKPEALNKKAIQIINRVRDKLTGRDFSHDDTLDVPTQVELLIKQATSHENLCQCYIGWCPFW
compound,measurement,setting,value
"COc1ccc(-c2nc(N3CCOCC3)c3nc(CN(C)c4ncc(C(=O)NO)cn4)n(C)c3n2)cn1 [CLJ-1, 2-(((2-(6-methoxypyridine-3-yl)-9-methyl-6-morpholine-9H-purine-8-yl))methyl(methyl)amino)-N-hydroxyl pyrimidine-5-formamide]",pIC50,mTOR,5.00 to 6.00
"CN(Cc1nc2c(N3CCOCC3)nc(-c3cnc(N)nc3)nc2n1C)c1ncc(C(=O)NO)cn1 [CLJ-11, 2-(((2-(2-aminopyrimidine-5-yl)-9-methyl-6-morpholine-9H-purine-8-yl))methyl(methyl)amino)-N-hydroxyl pyrimidine-5-formamide]",pIC50,mTOR,6.00 to 7.00
CN(Cc1nc2c(N3CCOCC3)nc(-c3ccc(N)cc3)nc2n1C)c1ncc(C(=O)NO)cn1 [CLJ-44],Death,[1]; 2.5 mg/kg,0/6
same,Inhibitory rate (%),[1]; 2.5 mg/kg,49.4%
same,Death,[1]; 5 mg/kg,0/6
same,Inhibitory rate (%),[1]; 5 mg/kg,53.3%
same,Death,[1]; 10 mg/kg,0/6
same,Inhibitory rate (%),[1]; 10 mg/kg,68.2%
same,Death,"[2]; 2.5 mg/kg, intravenous",0/7
same,Inhibitory rate (%),"[2]; 2.5 mg/kg, intravenous",45.09%
same,Death,"[2]; 5 mg/kg, intravenous",0/7
same,Inhibitory rate (%),"[2]; 5 mg/kg, intravenous",69.65%
same,Death,"[2]; 10 mg/kg, intravenous",0/7
same,Inhibitory rate (%),"[2]; 10 mg/kg, intravenous",71.94%
same,Death,"[3]; 2.5 mg/kg, intravenous",0/6
same,Inhibitory rate (%),"[3]; 2.5 mg/kg, intravenous",69.58%
same,Death,"[3]; 5 mg/kg, intravenous",0/6
same,Inhibitory rate (%),"[3]; 5 mg/kg, intravenous",77.58%
same,Death,"[3]; 10 mg/kg, intravenous",0/6
same,Inhibitory rate (%),"[3]; 10 mg/kg, intravenous",82.24%
same,Death,"[4]; 2.5 mg/kg, intravenous",0/6
same,Inhibitory rate (%),"[4]; 2.5 mg/kg, intravenous",72.1%
same,Death,"[4]; 5 mg/kg, intravenous",0/6
same,Inhibitory rate (%),"[4]; 5 mg/kg, intravenous",83.9%
same,Death,"[4]; 10 mg/kg, intravenous",0/6
same,Inhibitory rate (%),"[4]; 10 mg/kg, intravenous",86.9%
"Cc1[nH]c2ccccc2c1CCNCc1ccc(/C=C/C(=O)NO)cc1 [LBH589, panobinostat, reference compound]",Death,"[2]; 10 mg/kg, intraperitoneal",0/7
same,Inhibitory rate (%),"[2]; 10 mg/kg, intraperitoneal",47.33%
same,Death,"[3]; 10 mg/kg, intraperitoneal",0/6
same,Inhibitory rate (%),"[3]; 10 mg/kg, intraperitoneal",75.69%
same,Death,"[4]; 10 mg/kg, intraperitoneal",0/6
same,Inhibitory rate (%),"[4]; 10 mg/kg, intraperitoneal",77.95%
